This note sets out measurements from article PMC3177597 (Bioorganic & medicinal chemistry letters, 2009).

The term Ki denotes the equilibrium dissociation constant of an inhibitor or competing ligand from its target. Low readings indicate tighter binding, high ones weaker binding.

Experiment [1] has as its system mGluRs 1, 2, 3, 4, 7 and 8. Kind of experiment: Selectivity versus other mGluRs.
The target of experiment [2] is MPEP allosteric binding site on mGluR5 (Rattus norvegicus, UniProt P31424). Kind of experiment: Displacement of [3H]3-methoxy-5-.

SMILES strings stand for the structures.

Sequence of MPEP allosteric binding site on mGluR5 (P31424 21-1203): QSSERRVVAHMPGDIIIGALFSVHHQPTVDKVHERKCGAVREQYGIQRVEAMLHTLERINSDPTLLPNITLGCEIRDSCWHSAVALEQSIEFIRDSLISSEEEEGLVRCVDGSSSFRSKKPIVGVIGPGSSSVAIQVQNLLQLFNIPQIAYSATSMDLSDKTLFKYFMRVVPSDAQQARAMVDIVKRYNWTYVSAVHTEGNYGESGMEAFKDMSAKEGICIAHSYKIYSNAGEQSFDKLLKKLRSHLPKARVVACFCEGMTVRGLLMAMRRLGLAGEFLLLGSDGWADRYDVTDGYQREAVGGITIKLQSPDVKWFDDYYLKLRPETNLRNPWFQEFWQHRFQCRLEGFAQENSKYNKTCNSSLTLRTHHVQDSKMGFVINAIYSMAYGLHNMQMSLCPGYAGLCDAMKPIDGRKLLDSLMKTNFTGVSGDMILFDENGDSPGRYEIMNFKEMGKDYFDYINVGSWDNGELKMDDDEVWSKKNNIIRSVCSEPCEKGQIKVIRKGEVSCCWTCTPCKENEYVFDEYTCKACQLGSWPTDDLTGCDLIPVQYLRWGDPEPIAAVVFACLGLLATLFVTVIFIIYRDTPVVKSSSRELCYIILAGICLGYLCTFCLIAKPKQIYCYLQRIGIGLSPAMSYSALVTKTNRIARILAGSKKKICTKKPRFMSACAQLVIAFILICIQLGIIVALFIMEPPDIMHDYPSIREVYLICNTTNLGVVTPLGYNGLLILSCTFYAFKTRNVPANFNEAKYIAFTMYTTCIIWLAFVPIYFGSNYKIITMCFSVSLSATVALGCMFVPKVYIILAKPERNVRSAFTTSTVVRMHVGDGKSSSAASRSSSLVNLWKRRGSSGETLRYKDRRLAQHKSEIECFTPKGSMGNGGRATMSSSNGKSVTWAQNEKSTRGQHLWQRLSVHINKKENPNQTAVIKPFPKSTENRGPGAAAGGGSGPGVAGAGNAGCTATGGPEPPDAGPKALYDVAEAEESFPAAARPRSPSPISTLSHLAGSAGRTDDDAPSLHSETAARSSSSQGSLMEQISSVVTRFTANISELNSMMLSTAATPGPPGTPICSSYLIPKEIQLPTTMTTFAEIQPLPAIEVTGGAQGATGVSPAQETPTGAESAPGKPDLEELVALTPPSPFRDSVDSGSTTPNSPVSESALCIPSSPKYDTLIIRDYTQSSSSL

Turning to `COc1ccccc1C(=O)Nc1cccc(NC(=O)c2cccc(Cl)c2)c1` [compound 8], the “selectivity versus mGluRs 1, 2, 3, 4, 7 and 8” value in experiment [1] is recorded as “selective”. This compound also gave a Ki in experiment [2] of 1100 nM.

With `O=C(Nc1ccccc1O)c1cccc(N2C(=O)c3ccccc3C2=O)c1` [compound 9, 3-(phthalimidyl)-N-(2-hydroxyphenyl)benzamide], in experiment [1], the “selectivity versus mGluRs 1, 2, 3, 4, 7 and 8” value was “selective”. For the same compound, the affinity in experiment [2], expressed as Ki, was 319 nM.
